What was measured:
[1] = molecular target: T1, AaPFK (Aedes aegypti phosphofructokinase) (Aedes aegypti, UniProt A0A903U8I9); test: coupled NADH oxidation assay (aldolase/TPI/alpha-GPDH), […] nm; assay type: biochemical; details: substrate inhibition, allosteric, second site; 1 mM F6P, 5 mM MgCl2, pH 7.4; crude extract; unit not printed (ATP range given in mM)
T1 construct: gene 5568472; native enzyme in supernatant of whole-insect homogenate, not purified
T1 sequence (A0A903U8I9 1-790): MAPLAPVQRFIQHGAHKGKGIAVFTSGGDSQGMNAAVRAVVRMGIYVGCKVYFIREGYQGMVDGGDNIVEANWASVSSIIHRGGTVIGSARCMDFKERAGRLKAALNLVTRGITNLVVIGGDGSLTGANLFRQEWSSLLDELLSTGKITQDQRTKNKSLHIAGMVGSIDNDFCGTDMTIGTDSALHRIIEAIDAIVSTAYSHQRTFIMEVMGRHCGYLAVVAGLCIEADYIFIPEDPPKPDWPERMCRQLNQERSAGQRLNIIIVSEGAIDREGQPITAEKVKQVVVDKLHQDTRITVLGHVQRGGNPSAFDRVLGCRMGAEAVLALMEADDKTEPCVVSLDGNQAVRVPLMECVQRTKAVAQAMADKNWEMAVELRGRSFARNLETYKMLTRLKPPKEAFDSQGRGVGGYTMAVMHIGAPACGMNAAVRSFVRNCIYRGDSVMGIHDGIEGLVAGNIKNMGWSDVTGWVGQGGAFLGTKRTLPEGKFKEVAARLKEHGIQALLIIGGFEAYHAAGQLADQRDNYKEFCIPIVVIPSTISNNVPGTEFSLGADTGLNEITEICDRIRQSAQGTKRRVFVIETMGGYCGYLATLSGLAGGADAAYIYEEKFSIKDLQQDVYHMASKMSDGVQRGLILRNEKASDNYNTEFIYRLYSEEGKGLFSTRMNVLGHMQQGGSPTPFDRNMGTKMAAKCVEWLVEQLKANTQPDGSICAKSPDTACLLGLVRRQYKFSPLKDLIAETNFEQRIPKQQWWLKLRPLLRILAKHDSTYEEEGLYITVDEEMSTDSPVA

[2] = substrate: Nc1ncnc2c1ncn2[C@@H]1O[C@H](COP(=O)(O)OP(=O)(O)OP(=O)(O)O)[C@@H](O)[C@H]1O; test: cells, lysate or membranes; details: 1 mM F6P, 5 mM MgCl2, pH 7.4 (Fig. 1 legend: pH 8.0); crude extract; Table 1 labels this number Kprime = K0.5^h with h 0.741

Nc1ncnc2c1ncn2[C@@H]1O[C@H](COP(=O)(O)OP(=O)(O)OP(=O)(O)O)[C@@H](O)[C@H]1O [ATP]
ATP / Activity [U (mg protein) ^-1] [1]: 4.536 ± 0.178

B1: AaPFK (Aedes aegypti phosphofructokinase) (Aedes aegypti) (protein)
chain: MAPLAPVQRFIQHGAHKGKGIAVFTSGGDSQGMNAAVRAVVRMGIYVGCKVYFIREGYQGMVDGGDNIVEANWASVSSIIHRGGTVIGSARCMDFKERAGRLKAALNLVTRGITNLVVIGGDGSLTGANLFRQEWSSLLDELLSTGKITQDQRTKNKSLHIAGMVGSIDNDFCGTDMTIGTDSALHRIIEAIDAIVSTAYSHQRTFIMEVMGRHCGYLAVVAGLCIEADYIFIPEDPPKPDWPERMCRQLNQERSAGQRLNIIIVSEGAIDREGQPITAEKVKQVVVDKLHQDTRITVLGHVQRGGNPSAFDRVLGCRMGAEAVLALMEADDKTEPCVVSLDGNQAVRVPLMECVQRTKAVAQAMADKNWEMAVELRGRSFARNLETYKMLTRLKPPKEAFDSQGRGVGGYTMAVMHIGAPACGMNAAVRSFVRNCIYRGDSVMGIHDGIEGLVAGNIKNMGWSDVTGWVGQGGAFLGTKRTLPEGKFKEVAARLKEHGIQALLIIGGFEAYHAAGQLADQRDNYKEFCIPIVVIPSTISNNVPGTEFSLGADTGLNEITEICDRIRQSAQGTKRRVFVIETMGGYCGYLATLSGLAGGADAAYIYEEKFSIKDLQQDVYHMASKMSDGVQRGLILRNEKASDNYNTEFIYRLYSEEGKGLFSTRMNVLGHMQQGGSPTPFDRNMGTKMAAKCVEWLVEQLKANTQPDGSICAKSPDTACLLGLVRRQYKFSPLKDLIAETNFEQRIPKQQWWLKLRPLLRILAKHDSTYEEEGLYITVDEEMSTDSPVA
K0.5 [2]: 0.43 ± 0.10 mM
